Source: patent publication US8202687B2, “Method for transporting potassium ions from front side to back side of lipid bilayer membrane” (Panasonic Corporation, priority 2010, dated 2012)

Experiments:
β1 adrenergic receptor = molecular target: T1, β1 adrenergic receptor (Rattus norvegicus, UniProt P18090); test: Patch-clamp agonist concentration dependence in Gi/olf94 chimeric G protein expressing cells (present invention); assay type: cell-based; conditions: for Change Level in Current Density (relative value): Table 14, 100 = 30000 nM dopamine, 100 nM dobutamine, 30 nM ISO
T1 construct: expressed in transfected cells; host or cells: HEK293T
T1 sequence (P18090 whole entry): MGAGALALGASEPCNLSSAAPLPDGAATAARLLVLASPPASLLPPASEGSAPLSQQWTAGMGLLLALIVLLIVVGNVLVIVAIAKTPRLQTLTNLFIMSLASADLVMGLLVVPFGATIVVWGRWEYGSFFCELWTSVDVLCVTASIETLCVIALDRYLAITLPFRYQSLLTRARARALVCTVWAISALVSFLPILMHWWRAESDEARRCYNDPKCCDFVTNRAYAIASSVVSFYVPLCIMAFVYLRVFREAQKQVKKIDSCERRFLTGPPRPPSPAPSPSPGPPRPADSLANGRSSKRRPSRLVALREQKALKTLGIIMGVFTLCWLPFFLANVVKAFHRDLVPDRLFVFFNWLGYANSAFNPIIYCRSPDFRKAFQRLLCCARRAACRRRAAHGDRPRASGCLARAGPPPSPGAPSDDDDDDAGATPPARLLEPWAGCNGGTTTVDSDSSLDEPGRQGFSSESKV
Procedure: Membrane current of the chimeric G protein expressing cell was measured by using a patch-clamp technique. […] Procedure for the measurements is shown below.
Measurement operations were conducted under a microscope (“1X71” manufactured by Olympus, Inc.). A liquid circulation chamber was mounted on the silver/silver chloride (Ag/AgCl) electrode. A sample for measurement was placed in the liquid circulation chamber filled with Tyroad's buffer. At a state where a single cell was in contact with the tip of a glass electrode, negative pressure was applied in the glass electrode. The portion of a cell membrane in contact with the tip of the glass electrode was torn to form an equivalent circuit (Whole-cell mode). The electric potential difference between inside and outside a cell was kept at 0 mV by using a patch clamp amplifier (“EPC10” manufactured by HEKA Instrument Inc.). Under this mode, the Tyroad's buffer in the liquid circulation chamber was substituted with a GIRK buffer.
The GIRK buffer in the liquid circulation chamber was substituted with a sample solution.
Chemical substance detection sensitivity according to the present invention was compared to detection sensitivity of cAMP technique, which is a commonly used chemical substance detection technique. The cAMP technique is a technique for measuring an increase in cAMP concentration in an intracellular fluid caused by an interaction between an agonist and a receptor, and quantifying the concentration of the agonist based on the measured value. More particularly, cells expressing β1 adrenergic receptor and potassium ion channel Kir3.1 (F137S) were placed in contact with a buffer solution containing ISO, and then were homogenized. The concentration of cAMP contained in the obtained homogenate liquid was measured. The concentration measurement was performed by using a measurement kit (cyclic AMP EIA kit; Assay Designs, Inc.). The kit measures cAMP concentration by utilizing competitive EIA (competitive enzyme immunoassay). A cAMP concentration obtained when the ISO concentration inside of a buffer solution was 1000 nM was represented as 100 as a standard, and cAMP concentrations at respective ISO concentrations were calculated as ratios with regard to this standard cAMP concentration. […] A change value in current density obtained when the ISO concentration was 30 nM was represented as 100 as a standard, and change values in current density at respective ISO concentrations were calculated as ratios with regard to the standard change value.

[1] = tested on: β1 adrenergic receptor / potassium ion channel Kir3.1 (F137S) in HEK293T cells; test: Patch-clamp membrane current of G protein expressing HEK293T cells with and without ISO; assay type: cell-based, rat (receptor), mouse (Kir3.1)
Procedure: A cell was obtained that expressed a chimeric G protein, a potassium ion channel, and a chemical substance receptor (hereinafter, the cell is referred to as “chimeric G protein expressing cell”). An electrophysiological activity of the chimeric G protein expressing cell was measured by using patch-clamp method. The chimeric G protein expressing cell was prepared in accordance with the following procedure. First, a chimeric G protein expression plasmid, a potassium ion channel expression plasmid, and a chemical substance receptor expression plasmid were prepared. Next, the three expression plasmids were transfected into HEK293T cells, and were then expressed inside the cells.
A chimeric G protein comprising Gi/olf13 as a chimeric Gα subunit was employed. The mutated potassium ion channel Kir3.1 (F137S) was employed as a potassium ion channel. The β1 adrenergic receptor was employed as a chemical substance receptor.
The plasmid (βAR), the plasmid Kir3.1 (F137S), and the plasmid (Gi/olf13) were expressed in HEK293T cells. The procedure for the expression is shown below. Approximately 80% confluent cultured HEK293T cells were collected, and plated on a new culture petri dish. The passage number of the used cells was not more than ten generations. DMEM (supplemented with 10% FBS (fetal bovine serum) and streptomycin) was used. After culturing the cells for 24 hours, the cells were transfected with the plasmids by using a transfection reagent. The cells were cultured for 48 hours after being transfected with the plasmids, and thereby chimeric G protein expressing cells were prepared.
Membrane current of the chimeric G protein expressing cell was measured by using a patch-clamp technique. Measurements were conducted with and without supplying isoproterenol (hereinafter, referred to as “ISO”) which was a β1 adrenergic receptor agonist. Procedure for the measurements is shown below.
The chimeric G protein expressing cells were plated on coverslips (3 mm×10 mm; Matsunami Glass Ind., Ltd.,) treated with PLL (poly-L-lysine) and kept still for four hours to obtain samples for the measurements.
Procedure for preparing glass electrodes used for the measurements is described below. […]
Measurement operations were conducted under a microscope (“1X71” manufactured by Olympus, Inc.). […] Pulse potentials (electric potential: −50 mV; duration time: 100 mS) were applied every 10 seconds, and membrane currents obtained upon the application were measured.
Next, membrane currents obtained when isoproterenol (hereinafter, abbreviated as “ISO”) which is a β1 adrenergic receptor agonist was brought into contact with the cell were measured in accordance with the following procedure. […]

Row | Molecule | Change Level in Current Density (relative value) (β1 adrenergic receptor; agonist 0.3 nM) | Change Level in Current Density (relative value) (β1 adrenergic receptor; agonist 3 nM) | Change Level in Current Density (relative value) (β1 adrenergic receptor; agonist 30 nM) | Change Level in Current Density (relative value) (β1 adrenergic receptor; agonist 300 nM) | Change Level in Current Density (relative value) (β1 adrenergic receptor; agonist 3000 nM) | EC50 (β1 adrenergic receptor; change in current density, Gi/olf94 cells, read-out: half maximal effective concentration (EC50)) | change level of current caused by addition of ISO ([1]; Reference Example) | current value when ISO was supplied ([1]; Reference Example, FIG. 26-28, with ISO) | Change Level in Current Density ([1]; Table 11, difference of current density without vs with ISO 30 nM, pulse −50 mV, β1 adrenergic receptor + Kir3.1 (F137S) co-expressed) | Current Change Level ([1]; Table 15, Reference Example, change on contact with ISO)
1 | CC(CCc1ccc(O)cc1)NCCc1ccc(O)c(O)c1 (stereo not shown) [dobutamine] | 0.67 | 6.80 | 20.59 | 99.15 | 100 | 50 nM |  |  |  | 
2 | Gαolf: wild type G protein α subunit Gαolf (mouse), SEQ ID NO: 2 (protein, listed as Mus musculus, (1)..(381) bulbus olfactorius of mouse) MGCLGNSSKTAEDQGVDEKERREANKKIEKQLQKERLAYKATHRLLLLGAGESGKSTIVKQMRILHVNGFNPEEKKQKILDIRKNVKDAIVTIVSAMSTIIPPVPLANPENQFRSDYIKSIAPITDFEYSQEFFDHVKKLWDDEGVKACFERSNEYQLIDCAQYFLERIDSVSLVDYTPTDQDLLRCRVLTSGIFETRFQVDKVNFHMFDVGGQRDERRKWIQCFNDVTAIIYVAACSSYNMVIREDNNTNRLRESLDLFESIWNNRWLRTISIILFLNKQDMLAEKVLAGKSKIEDYFPEYANYTVPEDATPDAGEDPKVTRAKFFIRDLFLRISTATGDGKHYCYPHFTCAVDTENIRRVFNDCRDIIQRMHLKQYELL |  |  |  |  |  |  | small | approximately 0.5 nA | −22.59 pA/pF | −0.37 nA
